This is an account of results in US12655101B2, “Small molecules with antibacterial activity” (NEW MEXICO TECH UNIVERSITY RESEARCH PARK CORPORATION, priority 2021, dated 2026).

Each structure is given as a SMILES string. Where two headings read alike, the source gives them in different places.

A word on the IC50: it is the concentration that inhibits the measured activity by half.

Common to all, as to assay type: cell-based
One data set concerns red blood cells. Description: Red blood cell lysis capacity. As for the experimental part: Diluted red blood cells were aliquoted into clear tissue culture media−/+addition of 40% human serum and added either 2 μL or 40 μL of cell lysis buffer (LB), 50 μM, 40 μM, 20 μM, 15 μM, 10 μM, or 5 μM Compound 14. The samples were agitated by vortex and spun by centrifuge.
A further data set relates to E. coli pNMT41. The data set can be described thus: 6-chloro-4-methyl-umbelliferyl-β-D-glucuronide assay for beta-glucuronidase (inner membrane disruption). The note with it: 10 μg/mL PME. The method, then:
E. coli pNMT 41 was grown from a glycerol stock by placing a small volume of cells onto a MHA plate. The MHA plate was incubated overnight at 37° C. A single colony was subsequently used to inoculate MHB+100 μg/mL ampicillin to obtain a bacterial broth suspension. The MHB broth suspension was grown at 37° C. on a rotary shaking incubator (100 rpm) for 12 hours. The bacterial cell concentration was adjusted to ˜1×10^7 CFU/mL in MHB using OD at 595 nm. The cells were washed 3× by spinning by centrifuge and washing with 500 μL medium 200. The cells were resuspended in 7 mL medium 200. The cells were treated with 10 μM melittin, 6, 12, 24, and 100 μM Compound 25, and 10 μg/mL PME. The cells were incubated at 37° C. for 30 minutes. 1 μM umbelliferyl was added, and the cells were incubated further for 10 minutes at 37° C.
The cells were then incubated at 37° C. for 45 minutes. 1 μM umbelliferyl was added, and the cells were incubated further for 10 minutes at 37° C.

In data set [1] the test system is RecA-GFP fusion protein in E. coli MG1655. Description: Inhibition of norfloxacin-triggered RecA-GFP induction in E. coli MG1655. The method, then:
An increase in DNA damage-induced RecA protein expression is required for identification and repair of DNA lesions. LexA-repressed transcription of a norfloxacin-triggered SOS response was measured by detecting an increase in RecA-GFP fusion protein fluorescence in an E. coli recombinant model. The compounds of the disclosure inhibited RecA-GFP induction and presumably, the concurrent SOS response. Inhibition of RecA-GFP expression correlated with an increase in cell death, most likely as a result of ALD activation. Sub-potent concentrations of Polymixin E were used to facilitate entry of the compounds into cells.
E. coli MG1655 was grown from a glycerol stock by placing a small volume of cells onto a MHA plate. The MHA plate was incubated overnight at 37° C. A single colony was subsequently used to inoculate MHB+10 μg/mL kanamycin to obtain a bacterial broth suspension. This was grown in at 37° C. on a rotary shaking incubator (100 rpm) for 12 hours. The bacterial cell concentration was adjusted to ˜5×10^5 colony forming units per milliliter (CFU/mL) in MHB using optical density at 595 nm. Treated cells with polymyxin E (PME) or norfloxacin (in μg/ml) at indicated concentrations for 30 minutes at 37° C. and then added a compound of the disclosure at indicated micromolar concentrations. Incubated for 3.5 hours at 37° C. Cell samples were read on the flow cytometer to detect (green fluorescent) RLU RecA expression and/or shutdown.
E. coli MG1655 was grown from a glycerol stock by placing a small volume of cells onto a MHA plate. The MHA plate was incubated overnight at 37° C. A single colony was subsequently used to inoculate MHB+10 μg/mL kanamycin to obtain a bacterial broth suspension. The MHB broth suspension was grown at 37° C. on a rotary shaking incubator (100 rpm) for 12 hours. The bacterial cell concentration was adjusted to ˜5×10^5 CFU/mL in MHB using OD at 595 nm.
Cells were treated with 0.03 μg/mL and 0.06 μg/mL norfloxacin for 30 minutes at 37° C. Then, 100 μM of the compounds were added. The cells were incubated for 3.5 hours at 37° C. 200 μL aliquots were removed and read by a flow cytometer to detect RecA production and/or shutdown. The cells were incubated for an additional 18 hours at 37° C. to assess overall toxicity.

For another data set, the system named is HeLa cells. Description: HeLa cell toxicity IC50 (MTT). To be noted: Homo sapiens.
A further data set relates to A. baumannii. The data set can be described thus: Synergy with PME (Table 7).
Data set [2] has as its system A. baumannii ATCC 15151. The data set can be described thus: Filamentation with ciprofloxacin and Compound 25 on A. baumannii. To be noted: for cell morphology and growth: 18 hours. As for the experimental part:
A. baumannii ATCC 15151: […] The culture tubes were incubated for 18 hours at 37° C. After 18 hours incubation, took 3 μL of cells from each well and plated on microscope slide to observe the following: […]

Data set [3] has as its system A. baumannii ATCC 15151. Description: DNA degradation (agarose gel), drug-sensitive strain. The note with it: 1.5% H2O2, 10 μg/mL ciprofloxacin, 100 μM Compound 25; 3 hours.
Data set [4] relates to A. baumannii ATCC 15151. Description: Synergy of kanamycin and Compound 25, colony counts. As for the experimental part:
Bacterial cells were prepared using methods described above. 500 μL aliquots of the adjusted bacterial cell suspensions were placed into borosilicate glass tubes, where the cell suspensions were treated with 12.5 μg/mL kanamycin, 1 μM or 2 μM Compound 25, or a combination of 12.5 μg/mL kanamycin plus 1 μM or 2 μM Compound 25. The culture tubes were incubated for 18 hours at 37° C. Colony counts were performed by 10-fold serially diluting the samples into fresh MHB and drip-streaking 10 μL from each dilution series onto MHA. The plates were incubated at 37° C. for 18 hours before the CFU/mL were determined by visual cell counts.
A. baumannii ATCC 15151 was grown from a glycerol stock by placing a small volume of cells onto a MHA plate. The MHA plate was incubated overnight at 37° C. A single colony was subsequently used to inoculate MHB to obtain a bacterial broth suspension. The MHB broth suspension was grown at 37° C. on a rotary shaking incubator (100 rpm) for 12 hours. The bacterial cell concentration was adjusted to ˜5×10^5 CFU/mL in MHB or MHB+40% FBS using OD at 595 nm. 500 μL aliquots of the adjusted bacterial cell suspensions were placed into borosilicate glass tubes. Cell suspensions were treated with 6 μg/mL or 12.5 μg/mL kanamycin, 1 μM, 2 μM, or 10 μM Compound 25, or a combination of 6 μg/mL or 12.5 μg/mL […] plus 1 μM, 2 μM, or 10 μM Compound 25. The culture tubes were incubated for 18 hours at 37° C. Colony counts were determined by 10-fold serially diluting the samples into fresh MHB and drip-streaking 10 μL from each dilution series onto MHA. The plates were incubated at 37° C. for 18 hours before the CFU/mL were determined by visual cell counts.

[5] abbreviates: HeLa, read-out: IC50 on HeLa in 40% FBS, Table 7.
Where [6] appears, read: read-out: IC50 40% FBS, HeLa cells.
[7] abbreviates: […] Compound 25+50 ng/mL ciprofloxacin.

With `Nc1cccc2[nH]cc(/C=N/Nc3ccc(Cl)cc3)c12` [Compound 14, (E)-3-((2-(4-chlorophenyl)hydrazineylidene)methyl)-1H-indol-4-amine], the “red blood cell lysis” value in the data set on red blood cells (40% additional human serum, 50 μM Compound 14) is on record as “did not lyse cells”; with red blood cells (no additional serum, 40 μM Compound 14), “lysed some red blood cells”. For the same compound, the “inner membrane disruption (GUS fluorescence)” value in the data set on E. coli pNMT41 (separate experiment, 12.5 μM Compound 14, 45 minutes) is “did not disrupt inner membrane”. The “RecA attenuation with norflox on E. coli” value in data set [1] is on record as “Yes”. Moreover, the IC50 with HeLa cells (setting [5]) and with HeLa cells (setting [6]) was 183 µM throughout. Also, the “Synergize with PME?” value in the data set with A. baumannii is “Yes, at 4 μM”.

On to `Clc1ccc(N/N=C/c2c[nH]c3ccc(Br)cc23)cc1` [Compound 15, (E)-5-bromo-3-((2-(4-chlorophenyl)hydrazineylidene)methyl)-1H-indole], for which the “RecA attenuation with norflox on E. coli” value in data set [1] was “Yes”. Moreover, the IC50 in the data set with HeLa cells (setting [5]) and in the data set with HeLa cells (setting [6]) was 67.4 µM in each case.

With `Cl.Clc1ccc(N/N=C/c2c[nH]c3cccc(OCc4ccccc4)c23)cc1` [Compound 26, (E)-2-((4-(benzyloxy)-1H-indol-3-yl)methylene)-1-(4-chlorophenyl)hydrazin-1-ium], the “RecA attenuation with norflox on E. coli” value in data set [1] is recorded as “Yes”. Besides, the IC50 with HeLa cells (setting [5]) and with HeLa cells (setting [6]) was 58.2 µM each time. Moreover, the “Synergize with PME?” value in the data set on A. baumannii is “Yes, at 1 μM”.

For `Cl.Fc1ccc(N/N=C/c2c[nH]c3cccc(OCc4ccccc4)c23)cc1` [Compound 27, (E)-2-((4-(benzyloxy)-1H-indol-3-yl)methylene)-1-(4-fluorophenyl)hydrazin-1-ium], the “RecA attenuation with norflox on E. coli” value in data set [1] was “Yes”. Further, the half-inhibitory concentration (IC50) in the data set on HeLa cells (setting [5]) and in the data set on HeLa cells (setting [6]) was 69.7 µM in each case. Further, the “Synergize with PME?” value with A. baumannii is “Yes, at 6 μM”.

As to `Brc1ccc(N/N=C/c2c[nH]c3cccc(OCc4ccccc4)c23)cc1.Cl` [Compound 25, (E)-2-((4-(benzyloxy)-1H-indol-3-yl)methylene)-1-(4-bromophenyl)hydrazin-1-ium chloride], the “inhibition of ciprofloxacin-induced filamentation” value with A. baumannii ATCC 15151 [2] (setting [7]) is “only slightly inhibited”. The “cell morphology and growth” value in the data set on A. baumannii ATCC 15151 [2] (setting [7]) is “elongated in morphology and growth inhibition was observed”; in the data set with A. baumannii ATCC 15151 [2] (single agent: 50 ng/mL ciprofloxacin or […] Compound 25) it was “morphologically normal and full growth was observed”. In addition, in the data set with A. baumannii ATCC 15151 [3], the DNA degradation result is reported as “did not degrade DNA”. Also, the “inner membrane disruption (GUS fluorescence)” value with E. coli pNMT41 (10 μM melittin, 6, 12, 24, 100 μM Compound 25, 30 minutes) is “did not disrupt the inner membrane”. The “RecA attenuation with norflox on E. coli” value in data set [1] was “Yes”. Moreover, the half-maximal inhibitory concentration (IC50) in the data set with HeLa cells (setting [5]) and in the data set on HeLa cells (setting [6]) was 101 µM each time. For the same compound, in the data set with A. baumannii, the “Synergize with PME?” value was “Yes, at 1 μM”. Further, the “synergy, logs of kill” value in the data set on A. baumannii ATCC 15151 [4] (12.5 μg/mL kanamycin+1 μM Compound 25, 18 hours) was 2.5 logs of kill; in the data set with A. baumannii ATCC 15151 [4] (40% FBS, 12.5 μg/mL kanamycin+10 μM Compound 25), 9 logs of kill; in the data set with A. baumannii ATCC 15151 [4] (without serum, 6 μg/mL kanamycin+2 μM Compound 25) it was 8 logs of kill. Also, the “synergy, full cell death” value in the data set on A. baumannii ATCC 15151 [4] (12.5 μg/mL kanamycin+2 μM Compound 25, 18 hours) is recorded as 9 orders of magnitude.
